Usually EC50 stands for the concentration at which the effect is half-maximal. The IC50 is the concentration that gives 50% inhibition. As usually defined, the CC50 is the concentration giving 50% cytotoxicity.

“Also recorded” adds a separate entry of the source. Like-named read-outs stand apart in the source and are kept apart here.

For data set [1], the system named is L. (V.) braziliensis intramacrophage amastigotes. Description: Treatment of RAW 264.7 macrophages infected with L. (V.) braziliensis (intramacrophage amastigotes). The data set is classed as cell-based, Leishmania (Viannia) braziliensis. Particulars: RAW 264.7 infected with L. (V.) braziliensis, 72 h of treatment. How it is done: RAW 264.7 macrophages (1 × 10^6 cells/mL) were seeded in 24-well plates containing sterile glass slides, and approximately 500 μL of supplemented DMEM medium was added. The plates were then incubated at 37 °C with 5% CO2 for 4 h to facilitate cell adhesion. Following the adhesion period, promastigotes (1 × 10^7) in the stationary growth phase were introduced into the wells for infection. The plates were then incubated for an additional 4 h to allow infection to take place. Afterward, the medium was carefully removed, and the wells were washed three times with PBS to eliminate any nonadherent cells. Fresh medium containing serial concentrations of the test substances, ranging from 0.78 to 25 μmol/L, was added to the wells. Additionally, a range of concentrations of glucantime (25 to 800 μmol/L) was included for comparison. The treatment was carried out for 72 h in an incubator at 37 °C with 5% CO2. At the end of the 72 h treatment period, the glass lamina was removed from each well and stained using rapid panoptic stain (Laborklin®, Curitiba, Paraná, Brazil). The stained samples were mounted on permanent slides using Entelan® (Sigma-Aldrich, St. Louis, MO, USA), and antileishmanial activity was assessed by measuring the infection rate and counting the number of amastigotes per macrophage. Quantification was performed using light microscopy at a magnification of 1000×, and a total of 300 macrophages per lamina were evaluated. As a negative control, half DMEM containing 0.2% DMSO was used.

In data set [2] the test system is L. (V.) braziliensis promastigotes. Description: Antileishmanial activity on promastigotes (MTT, 72 h). The class given is cell-based, Leishmania (Viannia) braziliensis. How it is done: Leishmania (Viannia) braziliensis (MHOM/BR/1975/M2903) was utilized in this study. The promastigote forms of these parasites were maintained in vitro in Schneider’s insect medium pH 7.2, supplemented with 20% fetal bovine serum (FBS) and 1% antibiotic solution (100 U/mL penicillin and 100 μg/mL streptomycin) at a temperature of 26 ± 1 °C in a Biochemical Oxygen Demand (BOD) incubator (Eletrolab EL202, São Paulo, Brazil), with regular aeration and weekly subculturing.
(§1) Assessment of antileishmanial activity against promastigote and amastigote axenic forms of parasites followed the method described by Rodrigues et al. and involved the following steps: L. (V.) braziliensis parasites were cultured in 96-well plates at a concentration of 1 × 10^6 parasites per well. Each well contained 100 μL of supplemented Schneider medium. Serial concentrations of the test substances, ranging from 50 to 1.56 μmol/L, were prepared. Reference drugs, meglumine antimoniate (20 to 40,000 μmol/L) and amphotericin B (0.031 to 2 μmol/L) were also prepared. These concentrations were used to assess the effects of the test substances in comparison to reference drugs. The plates were incubated in a BOD incubator at 26 °C for 72 h. After the 72 h incubation period, 10 μL of MTT (5 mg/mL) was added to each well. The plates were then incubated for an additional 4 h. At the end of the 4 h incubation, formazan crystals formed by the reduction of the MTT salt were solubilized by adding 50 μL of a 10% (w/v) sodium dodecyl sulfate (SDS) solution in distilled water. Absorbance was measured using a microplate reader at a wavelength of 540 nm (Biosystems ELx800 model, Curitiba, PR, Brazil). This measurement quantified the metabolic activity of the parasites, which is indicative of their viability and proliferation. Schneider medium containing 0.2% DMSO was used as a negative control in the tests.
(§2) The different mean concentrations for promastigotes (IC50) and macrophages (CC50) were calculated using nonlinear regression. For comparisons between groups, ANOVA analysis of variance was performed followed by Tukey’s test in a statistical program, taking the p-value < 0.05 as the maximum level of statistical significance.

Data set [3] relates to RAW 264.7 macrophages. Description: Cytotoxicity against RAW 264.7 macrophages (MTT). The class given is cell-based, murine. Particulars: RAW 264.7 cells, 72 h. How it is done: (§3) Murine macrophage cell line RAW 264.7 was used in this study. The cells were cultured in 75 cm^2 cell culture flasks (Corning Glass Workers, New York, NY, USA) using DMEM medium with a pH of 7.2, supplemented with 10% FBS and 1% antibiotic solution (containing 100 U/mL penicillin and 100 μg/mL streptomycin). The cells were maintained in an incubator at a temperature of 37 °C with 5% CO2. The spikes were performed after the cells reached complete confluence, characterized by the formation of a monolayer of cells around 48 h to 72 h after packaging.
(§4) In this study, we utilized the RAW 264.7 macrophages line (obtained from ATCC: code TIB-71™),human embryonic kidney cell line HEK-293 (obtained from ATCC: code CRL-1573™)and two human cancer cell cultures: the colon carcinoma cell line CaCo-2 and the adenocarcinomic human alveolar basal epithelial cell A549 (also obtained from ATCC: codesHTB-37™ and CCL-185™).These cell lines were cultured in Dulbecco’s modified Eagle medium (DMEM) from Gibco by Life Technologies (LifeTech Austria, Vienna, Austria). The growth medium was supplemented with 5% fetal bovine serum (FBS) from Gibco by Life Technologies and 1% penicillin-streptomycin obtained from Sigma-Aldrich (Vienna, Austria). The cells were maintained at 37 °C with 5% CO2 in a humidified incubator, and regular checks for mycoplasma contamination were carried out.
(§5) For experimental purposes, the cells were seeded into 96-well plates at a density of 2 × 10^4 cells/mL, with each well containing 100 µL of the cell suspension. The cells were allowed to adhere for 24 h. Subsequently, they were exposed to 100 µL of the test compounds, which were diluted in DMEM, with concentrations ranging from 2 to 600 µmol/L. The stock solutions of these compounds were prepared in water with 10% (v/v) dimethyl sulfoxide (DMSO) and stored at 4 °C.
(§6) To assess cell viability after 72 h of exposure to the compounds, we employed a 3-(4,5-dimethylthiazol-2-yl)-2,5-diphenyltetrazolium bromide (MTT)-based vitality assay kit (EZ4U, Biomedica, Vienna, Austria). Briefly, we added 20 µL of the EZ4U assay solution to each well and incubated the plates in the dark for 2 h. Subsequently, we measured the absorbance using a microplate reader at 450 nm, with 620 nm as a reference to reduce unspecific background values. For reliability, all experiments were conducted three times with triplicate samples.
as §2

A short description of data set [4]: Cytotoxicity against RAW 264.7 macrophages (MTT). The data set is classed as cell-based, murine. Particulars: mouse, RAW 264.7 macrophages, pH 7.2, RAW 264.7 cells. How it is done:
as §3, §4, §5, §6, §2

Data set [5] relates to L. (V.) braziliensis axenic amastigotes. Description: Antileishmanial activity on axenic amastigotes (MTT, 72 h). The class given is cell-based, Leishmania (Viannia) braziliensis. How it is done:
In vitro amastigogenesis was performed by transformation from promastigotes at the stationary phase of growth to obtention axenic amastigotes. This process involved altering the culture conditions to Schneider’s medium with a pH of 5.5, supplementing them with 5% FBS, and incubating them at a temperature of 32 °C [17].
as §1

The test system of data set [6] is terminal ileum. The data set is described as follows: Spasmolytic effect on terminal ileum (KCl contraction). The conditions noted are these: guinea pig terminal ilea, KCl-induced contraction. How it is done: (§7) Guinea pigs of either sex weighing between 250 or 380 g were utilized in this study. The animals were housed in a controlled environment in an air-conditioned room, maintaining a temperature of 22 to 24 °C and a relative humidity of 50% to 60%. A 12 h light–dark cycle was maintained.
(§8) On the day of the experiments, the animals were euthanized via cervical dislocation. The heart, aorta, pulmonary artery, and ileum were surgically removed and immersed in Krebs–Henseleit solution, with the following composition: NaCl 144.9 mM, KCl 4.73 mM, CaCl2 3.2 mM, MgSO4 1.18 mM, NaHCO3 24.9 mM, KH2PO4 1.18 mM, and glucose 10 mM, with the pH maintained at 7.2–7.4. This solution was continuously aerated with a mixture of 95% O2 and 5% CO2.
(§9) Papillary muscles were isolated from the right ventricle of the heart and meticulously cleared of Purkinje fibers to prevent spontaneous activity. To ensure adequate oxygen supply, only muscles with a diameter less than 0.87 mm were used. The right atrium was also dissected for assessment of chronotropic activity. Both the aorta and pulmonary artery were cleaned and cut into 5 mm rings, while the ileum was sectioned into pieces measuring 1 to 2 cm.
(§10) One end of the dissected tissues was securely tied with silver wire for attachment to a tissue holder, while the other end was connected to a force transducer (Transbridge™, 4-Channel Transducer Amplifier, World Precision Instruments, Sarasota, FL, USA). For contractile measurements, the terminal ileum was stimulated with 60 mM KCl, and the pulmonary artery and aorta rings were exposed to a 90 mM KCl solution. Papillary muscles were electrically stimulated using an Anapulse Stimulator Model 301-T and an Isolation Unit Model 305-1 (WPI, Hamden, CT, USA) with rectangular pulses of 3 ms duration at a frequency of 1 Hz. The amplitude of the stimulation pulse was maintained at 10% above the threshold level. To optimize contractility, a constant resting tension was applied throughout the experiment: 3.9 mN for papillary muscle, 4.9 mN for terminal ileum, 10.4 mN for the right atrium, and 19.6 mN for aorta and pulmonary artery rings.
(§11) Following a 30 min control period, different concentrations of test compounds were cumulatively added to the bath solution every 45 min until a stable effect was achieved. The responses were recorded using a chart recorder (BD 112 Dual Channel, Kipp &Zonen, PO Box 507, 2624 BC, Delft, Holland) for subsequent evaluation. Stock concentrations of the test compounds were prepared using DMSO. To account for any potential DMSO effect, control experiments were conducted with the solvent alone, and the observed effects were subtracted from the responses elicited by the test compounds.

For data set [7], the system named is pulmonary artery. Description: Vasodilator effect on pulmonary artery rings (KCl contraction). The conditions noted are these: Cavia porcellus; guinea pig pulmonary artery rings. How it is done:
as §7, §8, §9
One end of the dissected tissues was securely tied with silver wire for attachment to a tissue holder, while the other end was connected to a force transducer (Transbridge™, 4-Channel Transducer Amplifier, World Precision Instruments, Sarasota, FL, USA). For contractile measurements, the terminal ileum was stimulated with 60 mM KCl, and the pulmonary artery and aorta rings were exposed to a 90 mM KCl solution. […]
(§12) Following a 30 min control period, different concentrations of test compounds were cumulatively added to the bath solution every 45 min until a stable effect was achieved. The responses were recorded using a chart recorder (BD 112 Dual Channel, Kipp &Zonen, PO Box 507, 2624 BC, Delft, Holland) for subsequent evaluation. […]

In data set [8] the test system is right atrium. Description: Chronotropic effect on isolated right atrium. The arrangement: species or system guinea pig. Particulars: Cavia porcellus; isolated guinea pig right atrium, 3 to 100 µmol/L; read-out: EC50 reduction of heart rate activity. How it is done:
as §7, §8, §9, §10, §11

Data set [9] deals with aorta. The data set is described as follows: Vasodilator effect on aortic rings (KCl contraction). The conditions noted are these: Cavia porcellus; guinea pig aortic rings. How it is done:
as §7, §8
Papillary muscles were isolated from the right ventricle of the heart and meticulously cleared of Purkinje fibers to prevent spontaneous activity. To ensure adequate oxygen supply, only muscles with a diameter less than 0.87 mm were used. The right atrium was also dissected for assessment of chronotropic activity. […]
as §12

Regarding `C[C@@H]1[C@H](O)[C@@H](C)/C=C/C=C/C=C/C=C/C=C/C=C/C=C/[C@H](O[C@@H]2O[C@H](C)[C@@H](O)[C@H](N)[C@@H]2O)C[C@@H]2O[C@](O)(C[C@@H](O)C[C@@H](O)[C@H](O)CC[C@@H](O)C[C@@H](O)CC(=O)O[C@H]1C)C[C@H](O)[C@H]2C(=O)O` [Amphotericin B, reference compound], the EC50 in data set [1] (Leishmania braziliensis, RAW264.7, 72 h) came to 0.35 µM; in data set [1], 0.3 ± 0.02 µM; in data set [5] (Leishmania braziliensis) it was 0.4 µM. Moreover, the IC50 in data set [2] (Leishmania braziliensis) was 0.3 ± 0.01 µM. The compound also came in with a CC50 in data set [3] of 0.5 ± 0.1 µM. In addition, half-maximal cytotoxicity in [4] (CC50 at 72 h) was put at 0.55 µM.

In turn, `O=C(/N=C(/NCc1ccccc1)Nc1ccccc1Br)c1ccccc1` [LQOF-G35] had an IC50 in data set [2] (Leishmania braziliensis) of 25.9 ± 1.6 µM. This compound had a 50% cytotoxic concentration (CC50) at 72 h in [4] of 232 ± 3.5 µM.

For `O=C(/N=C(/NCc1ccccc1)Nc1cccc(Br)c1)c1ccccc1` [LQOF-G36], the “spasmolytic effect / contraction force in the terminal ileum” value in data set [6] is reported as “decrease in contraction force; also recorded: spasmolytic effect”. Also, in [2] (Leishmania braziliensis), the 50% inhibitory concentration (IC50) is more than 50 µM. In addition, the EC50 in data set [7] came to 23.5 µM; in data set [8] it was 38 µM; in data set [9], 29 µM.

For the compound “Meglumine antimoniate [Meglumine At, reference compound]”, the EC50 in [1] stood at 452 ± 14.3 µM; in data set [1] (listed as Meglumine antimoniate) it was 452 µM; in data set [5], 2170 µM. Further, in data set [2], the IC50 is 19300 µM. This compound also came in with a CC50 in data set [3] of 846 ± 13 µM.

These data come from article PMC10813298, “Evidence of Guanidines Potential against Leishmania (Viannia) braziliensis: Exploring In Vitro Effectiveness, Toxicities and of Innate Immunity Response Effects” (Biomolecules, 2023).
